In ChEMBL document CHEMBL5029183 (J Med Chem, 2021):
pEC50, pIC50, pKi: −log10 of the molar value. Activity calls are given as the source filed them.

Columns and labels:
Ileum = assay: Inhibition of electric-field induced guinea pig ileum contraction; format: functional, tissue-based; settings: Cavia porcellus
Vas deferens = assay: Inhibition of electric-field induced mouse vas deferens contraction; format: functional, tissue-based
Mus musculus [1] = assay: Antinociceptive activity in icv dosed Kunming mouse model assessed as increase in paw withdrawal latency by radiant heat paw withdrawal assay; format: functional; settings: dose 0.67-20 nmol
Mus musculus [2] = assay: Antinociceptive activity in Kunming mouse model assessed as increase in paw withdrawal latency at 0.67 to 20 nmol, icv by radiant heat paw withdrawal assay; format: functional, organism-based; settings: dose 0.67-20 nmol, TDE = time-dependent effect
Mus musculus [3] = assay: Antinociceptive activity in Kunming mouse model assessed as increase in paw withdrawal latency at 0.67 to 20 nmol, icv measured after 5 mins by radiant heat paw withdrawal assay; format: functional, organism-based; settings: dose 0.67-20 nmol
Mus musculus [4] = assay: Antinociceptive activity in Kunming mouse model assessed as increase in paw withdrawal latency at 0.67 to 20 nmol, icv measured after 20 mins by radiant heat paw withdrawal assay; format: functional, organism-based; settings: dose 0.67-20 nmol
Mus musculus [5] = assay: Antinociceptive activity in Kunming mouse model assessed as increase in paw withdrawal latency at 20 nmol, icv pretreated for 10 mins with naloxone followed by compound addition and measured upto 10 mins by radiant heat paw withdrawal assay; format: functional, organism-based; settings: time min <=10
Mus musculus [6] = assay: Antinociceptive activity in Kunming mouse model assessed as increase in paw withdrawal latency at 20 nmol, icv pretreated for 4 hrs with beta-FNA followed by compound addition and measured upto 10 mins by radiant heat paw withdrawal assay; format: functional, organism-based; settings: time min <=10
Mus musculus [7] = assay: Antinociceptive activity in Kunming mouse model assessed as increase in paw withdrawal latency at 20 nmol, icv pretreated for 20 mins with naloxonazine followed by compound addition and measured upto 10 mins by radiant heat paw withdrawal assay; format: functional, organism-based; settings: time min <=10
Mus musculus [8] = assay: Antinociceptive activity in Kunming mouse model assessed as increase in paw withdrawal latency at 20 nmol, icv pretreated for 30 mins with nor-BNI followed by compound addition and measured upto 10 mins by radiant heat paw withdrawal assay; format: functional, organism-based; settings: time min <=10
Mus musculus [9] = assay: Antinociceptive activity in Kunming mouse model assessed as increase in paw withdrawal latency at 10 micromol/kg, sc by radiant heat paw withdrawal assay; format: functional, organism-based; settings: dose 10.0 µmol/kg
Mus musculus [10] = assay: Chronic antinociceptive tolerance in Kunming mouse pretreated with compound followed by repeated compound addition at 20 nmol, icv once daily for 7 days and measured after 5 mins by radiant heat paw withdrawal test; format: functional, organism-based; settings: time 7.0 day
[11] = Toxicity in icv dosed Kunming mouse assessed as inhibition of gastrointestinal transit by measuring charcoal distance travel by charcoal meal test; format: organism-based; settings: in vivo, icv_or_intrathecal, dose 0.67-6.7 nmol
[12] = Toxicity in Kunming mouse assessed as inhibition of gastrointestinal transit at 10 micromol/kg, sc by charcoal meal test (reference value: 70.3 +/- 3 %); format: organism-based; design: scale not given: the % may be the effect or the level left; settings: in vivo
[13] = Toxicity in Kunming mouse model assessed as conditioned place preference time at 20 nmol, icv; settings: in vivo, icv_or_intrathecal
[14] = Toxicity in Kunming mouse model assessed as conditioned place preference time at 10 micromol/kg, sc; settings: in vivo, dose 10 µmol/kg
Mu-type opioid receptor [15] = target: Mu-type opioid receptor (Rattus norvegicus, UniProt P33535); assay: Displacement of [3H]DAMGO from MOR in Wistar rat brain membranes measured after 1 hr by scintillation counting method; format: cell membranes, Membrane
[16] = target: Delta-type opioid receptor (Rattus norvegicus, UniProt P33533); assay: Displacement of [3H]DPDPE from DOR in Wistar rat brain membranes measured after 3 hrs by scintillation counting method; format: cell membranes, Membrane
Rattus norvegicus [17] = organism: Rattus norvegicus; assay: Selectivity index, ratio of Ki for displacement of [3H]DPDPE from DOR in Wistar rat brain membranes to Ki for displacement of [3H]DAMGO from MOR in Wistar rat brain membranes; format: cell membranes
Rattus norvegicus [18] = organism: Rattus norvegicus; assay: Selectivity index, ratio of Ki for displacement of [3H]-U69593 from KOR in Wistar rat brain membranes to Ki for displacement of [3H]DAMGO from MOR in Wistar rat brain membranes; format: cell membranes
Mu-type opioid receptor [19] = target: T1, Mu-type opioid receptor (Homo sapiens, UniProt P35372); assay: Agonist activity at mu-opioid receptor (unknown origin) expressed in HEK293 cells assessed as inhibition of forskolin-induced cAMP accumulation incubated for 15 mins by ELISA; format: functional, cell-based
Mu-type opioid receptor [20] = target: T1, Mu-type opioid receptor; assay: Agonist activity at mu-opioid receptor (unknown origin) expressed in HEK293 cells assessed as inhibition of forskolin-induced cAMP accumulation incubated for 15 mins by ELISA relative to control; format: functional, cell-based; settings: filed as agonist
[21] = target: Delta-type opioid receptor (Homo sapiens) (UniProt P41143); assay: Agonist activity at delta-opioid receptor (unknown origin) expressed in HEK293 cells assessed as inhibition of forskolin-induced cAMP accumulation incubated for 15 mins by ELISA; format: functional, cell-based
[22] = target: Kappa-type opioid receptor (Homo sapiens) (UniProt P41145); assay: Agonist activity at kappa-opioid receptor (unknown origin) expressed in HEK293 cells assessed as inhibition of forskolin-induced cAMP accumulation incubated for 15 mins by ELISA; format: functional, cell-based
[23] = Metabolic stability in Kunming mouse brain assessed as half life measured upto 480 mins by RP-HPLC analysis; format: ADME, tissue-based
[24] = Metabolic stability in Kunming mouse serum assessed as half life measured upto 480 mins by RP-HPLC analysis; format: ADME, cell-free
Mus musculus [25] = assay: Chronic antinociceptive tolerance in Kunming mouse pretreated with compound followed by repeated compound addition at 10 micromol/kg, sc once daily for 7 days and measured after 20 mins by radiant heat paw withdrawal test; format: functional, organism-based; settings: dose 10.0 µmol/kg, time 7.0 day
Mus musculus [26] = assay: Antinociceptive activity in Kunming mouse model assessed as maximum possible effect at 10 micromol/kg, sc by radiant heat paw withdrawal assay; format: functional; settings: dose 10 µmol/kg
Mus musculus [27] = assay: Antiallodynic activity in Kunming mouse model of spared nerve injury-induced neuropathic pain assessed as increase in paw withdrawal threshold at 10 micromol/kg, sc measured at 20 to 50 mins by von Frey test; format: functional, organism-based; settings: dose 10.0 µmol/kg, time 20-50 min
Mus musculus [28] = assay: Chronic antinociceptive tolerance in Kunming mouse pretreated with compound followed by repeated compound addition at 20 nmol, icv once daily for 7 days and measured after 15 mins by radiant heat paw withdrawal test; format: functional, organism-based; settings: time 7.0 day
[29] = Toxicity in Kunming mouse assessed as effect on motor coordination at 20 nmol, icv by rotarod test; settings: in vivo, icv_or_intrathecal
[30] = Toxicity in Kunming mouse assessed as effect on motor coordination at 10 micromol/kg, sc by rotarod test; format: organism-based; settings: in vivo, dose 10 µmol/kg
Mus musculus [31] = organism: Mus musculus; assay: Antinociceptive tolerance in Kunming mouse pretreated with saline for 2 hrs followed by compound addition by radiant heat paw withdrawal test; format: functional
Mus musculus [32] = organism: Mus musculus; assay: Antinociceptive tolerance in Kunming mouse pretreated with 3 times ED50 of compound for 2 hrs followed by challenge with second dose of compound by radiant heat paw withdrawal test; format: functional

Kappa-type opioid receptor (Homo sapiens), sequence (P41145 whole entry): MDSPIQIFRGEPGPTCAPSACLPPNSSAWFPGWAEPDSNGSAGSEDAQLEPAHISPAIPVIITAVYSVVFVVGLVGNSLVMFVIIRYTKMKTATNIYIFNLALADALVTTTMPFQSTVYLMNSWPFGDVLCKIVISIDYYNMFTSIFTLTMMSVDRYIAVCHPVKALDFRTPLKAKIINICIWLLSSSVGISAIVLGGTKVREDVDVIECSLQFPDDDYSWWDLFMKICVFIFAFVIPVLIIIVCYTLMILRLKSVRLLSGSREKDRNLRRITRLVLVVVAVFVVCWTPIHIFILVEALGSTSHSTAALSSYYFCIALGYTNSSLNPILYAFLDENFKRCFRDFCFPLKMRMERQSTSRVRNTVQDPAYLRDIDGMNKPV
Delta-type opioid receptor, sequence (P33533 whole entry): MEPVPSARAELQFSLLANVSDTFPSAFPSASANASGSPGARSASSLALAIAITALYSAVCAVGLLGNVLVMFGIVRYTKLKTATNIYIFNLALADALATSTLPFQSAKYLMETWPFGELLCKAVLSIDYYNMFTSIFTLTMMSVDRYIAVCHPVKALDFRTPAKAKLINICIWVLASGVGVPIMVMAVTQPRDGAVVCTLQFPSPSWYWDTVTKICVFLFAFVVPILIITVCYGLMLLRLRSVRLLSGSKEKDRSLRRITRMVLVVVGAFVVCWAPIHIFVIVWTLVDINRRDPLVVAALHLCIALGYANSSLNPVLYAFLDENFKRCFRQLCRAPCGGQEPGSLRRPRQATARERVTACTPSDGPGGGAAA
Delta-type opioid receptor (Homo sapiens), sequence (P41143 whole entry): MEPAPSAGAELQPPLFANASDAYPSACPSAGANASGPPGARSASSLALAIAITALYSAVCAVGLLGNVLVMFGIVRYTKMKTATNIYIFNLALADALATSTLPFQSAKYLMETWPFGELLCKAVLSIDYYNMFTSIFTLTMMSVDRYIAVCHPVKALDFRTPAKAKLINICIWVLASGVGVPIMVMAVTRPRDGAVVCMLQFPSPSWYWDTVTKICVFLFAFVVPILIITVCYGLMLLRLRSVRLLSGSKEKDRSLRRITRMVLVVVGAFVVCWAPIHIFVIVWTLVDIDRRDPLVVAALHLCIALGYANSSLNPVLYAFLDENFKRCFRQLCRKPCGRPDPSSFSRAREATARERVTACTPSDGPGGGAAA
T1 sequence (P35372 whole entry): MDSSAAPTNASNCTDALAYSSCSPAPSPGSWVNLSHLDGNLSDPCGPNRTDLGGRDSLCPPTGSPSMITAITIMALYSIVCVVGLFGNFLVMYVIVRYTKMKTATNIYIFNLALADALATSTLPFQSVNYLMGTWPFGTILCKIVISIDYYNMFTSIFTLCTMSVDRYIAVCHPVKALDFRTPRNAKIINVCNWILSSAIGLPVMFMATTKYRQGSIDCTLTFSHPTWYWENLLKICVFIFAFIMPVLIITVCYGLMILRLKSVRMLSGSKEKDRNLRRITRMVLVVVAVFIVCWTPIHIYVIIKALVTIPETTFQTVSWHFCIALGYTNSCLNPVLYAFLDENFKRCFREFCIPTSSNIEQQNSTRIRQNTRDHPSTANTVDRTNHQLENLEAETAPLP
Mu-type opioid receptor (Rattus norvegicus, UniProt P33535), sequence (P33535 whole entry): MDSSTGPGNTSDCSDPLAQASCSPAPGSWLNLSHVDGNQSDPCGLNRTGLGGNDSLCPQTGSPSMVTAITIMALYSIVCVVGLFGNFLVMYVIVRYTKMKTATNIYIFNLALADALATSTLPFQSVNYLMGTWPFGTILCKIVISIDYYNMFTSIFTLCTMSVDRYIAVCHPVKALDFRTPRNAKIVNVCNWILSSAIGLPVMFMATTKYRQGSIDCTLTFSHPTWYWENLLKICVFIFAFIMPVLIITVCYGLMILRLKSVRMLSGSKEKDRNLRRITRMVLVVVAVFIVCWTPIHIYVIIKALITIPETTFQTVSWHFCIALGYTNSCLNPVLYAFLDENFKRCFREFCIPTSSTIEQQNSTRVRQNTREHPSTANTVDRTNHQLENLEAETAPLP

Row | SMILES | pIC50 (Ileum) | pIC50 (Vas deferens) | Activity [11] | Time [13] [s] | Time [14] [s] | pKi (Mu-type opioid receptor [15]) | pKi [16] | Ratio Ki (Rattus norvegicus [17]) | Ratio Ki (Rattus norvegicus [18]) | pEC50 (Mu-type opioid receptor [19]) | Emax (Mu-type opioid receptor [20]) [%] | Activity [21] | Activity [22] | half-life [23] [h] | half-life [24] [h] | other results
1 | NC(=O)[C@H](Cc1ccccc1)NC(=O)[C@H](Cc1c[nH]c2ccccc12)NC(=O)[C@@H]1CCCN1C(=O)[C@@H](N)Cc1ccc(O)cc1 [ENDOMORPHIN-1] | 8.06 | 7.30 | Dose-Dependent Effect | 455 | 451 |  |  |  |  |  |  |  |  |  |  | Activity (Mus musculus [1]): Dose-Dependent Effect; Activity (Mus musculus [2]): Tde; Activity (Mus musculus [3]): inactive; Activity (Mus musculus [4]): inactive; Activity (Mus musculus [5]): inactive; Activity (Mus musculus [6]): inactive; Activity (Mus musculus [7]): Active; Activity (Mus musculus [8]): Active; Activity (Mus musculus [9]): inactive; Activity (Mus musculus [10]): Active; Activity ([12]; at 10 µmol/kg): 68.1%
2 | N=C(N)NCCC[C@@H](NC(=O)[C@@H](CCCNC(=N)N)NC(=O)CNC(=O)[C@@H]1CSSC[C@H](NC(=O)[C@@H](N)Cc2ccc(O)cc2)C(=O)N[C@@H](Cc2ccccc2)C(=O)N[C@@H](Cc2ccccc2)C(=O)N1)C(=O)O | 7.13 | 6.97 |  |  |  | 7.34 | < 5.00 | 221 | > 221 | 6.81 | 79.7 | inactive | inactive | 4.12 | 3.6 | 
3 | N=C(N)NCCC[C@@H](NC(=O)[C@@H](CCCNC(=N)N)NC(=O)CNC(=O)[C@@H]1CSSC[C@H](NC(=O)[C@@H](N)Cc2ccc(O)cc2)C(=O)N[C@@H](Cc2c[nH]c3ccccc23)C(=O)N[C@@H](Cc2ccccc2)C(=O)N1)C(=O)O | 7.15 | 7.01 |  |  |  | 7.40 | < 5.00 | 249 | > 249 | 6.80 | 77.2 | inactive | inactive | 4.23 | 3.28 | 
4 | N=C(N)NCCC[C@@H](NC(=O)[C@@H](CCCNC(=N)N)NC(=O)CNC(=O)[C@@H]1CSSC[C@H](NC(=O)[C@@H](N)Cc2ccc(O)cc2)C(=O)N[C@@H](Cc2ccccc2)C(=O)N[C@@H](Cc2ccc(Cl)cc2)C(=O)N1)C(=O)O | 6.99 | 6.86 |  |  |  | 7.17 | < 5.00 | > 149 | > 149 | 6.70 | 79.6 | inactive | inactive | 5.85 | 4.47 | 
5 | N=C(N)NCCC[C@@H](NC(=O)[C@@H](CCCNC(=N)N)NC(=O)CNC(=O)[C@@H]1CSSC[C@H](NC(=O)[C@@H](N)Cc2ccc(O)cc2)C(=O)N[C@@H](Cc2c[nH]c3ccccc23)C(=O)N[C@@H](Cc2ccc(Cl)cc2)C(=O)N1)C(=O)O | 7.01 | 6.86 |  |  |  | 7.16 | < 5.00 | > 145 | > 145 | 6.72 | 80.6 | inactive | inactive | 5.8 | 4.57 | 
6 | CN1CC[C@]23c4c5ccc(O)c4O[C@H]2[C@@H](O)C=C[C@H]3[C@H]1C5 [MORPHINE] |  |  | Dose-Dependent Effect | 451 | 447 |  |  |  |  |  |  |  |  |  |  | Activity (Mus musculus [25]): Active; MPE (Mus musculus [26]): 41.05%; Activity (Mus musculus [27]): Active; Activity (Mus musculus [28]): Active; Activity ([12]; dose 10 µmol/kg): Toxic; Activity [29]: Toxic; Activity [30]: Toxic
7 | NC(=O)[C@H](Cc1ccccc1)NC(=O)[C@H](Cc1ccccc1)NC(=O)[C@@H]1CCCN1C(=O)[C@@H](N)Cc1ccc(O)cc1 [ENDOMORPHIN 2] | 7.95 | 7.37 | Dose-Dependent Effect | 449 | 445 |  |  |  |  |  |  |  |  | 0.258 | 0.148 | Activity (Mus musculus [1]): Dose-Dependent Effect; ED50 (Mus musculus [1]): 6.4 nmol; Activity (Mus musculus [2]): Tde; Activity (Mus musculus [3]): inactive; Activity (Mus musculus [4]): inactive; Activity (Mus musculus [5]): inactive; Activity (Mus musculus [6]): inactive; Activity (Mus musculus [7]): inactive; Activity (Mus musculus [8]): inactive; Activity (Mus musculus [9]): inactive; ED50 (Mus musculus [31]): 6.4 nmol; ED50 (Mus musculus [32]): 20.6 nmol; Activity (Mus musculus [10]): Active; Activity ([12]; at 10 µmol/kg): 68.8%
